# Columns and labels:
# [1] = system: pathogenesis-related (PR) proteins; experiment: Induced resistance in vine: resistance-linked metabolites and pathogenesis-related (PR) proteins; assay type: in vivo, vine plants; settings: for production of metabolites linked to resistance phenomena / response: vine plants
# Description: (§1) The efficacy of the treatments using the products listed above was assessed on the basis of the induced resistance using foliar discs and potted vine plants. The rate of induced resistance was determined on the basis of the increase in the content of pathogenesis-related (PR) proteins including: peroxidase, polyphenoloxidase, Beta 1,3-glucanase, phenylalanine ammonia-lyase, stilbene synthase, PR-1 protein and caffeoyl coenzyme A-3-O-methyltransferase.
# zoospores = experiment: Inhibition of zoospores (mobility); parameters: species or system Plasmopara viticola
# Plasmopara viticola = experiment: Protection of vine foliar discs and potted vine plants against Plasmopara viticola (peronospora); assay type: in vivo; settings: vine plants affected by peronospora
# Description: The field tests were performed on vine plants affected by peronospora. The potential of certain biocontrol and plant extract products for protection against Plasmopara viticola (peronospora) was also assessed, since some chemical and natural substances can reduce the plants' susceptibility. In particular, comparisons were performed on the use of commercial products or experimental products: • EXPERIMENTAL PRODUCT 1 (EP1) yeast extract • EXPERIMENTAL PRODUCT 2 (EP2) plant extract • EXPERIMENTAL PRODUCT 3 (EP3) Aureobasidium pullulans • CANG extract of Solidago canadensis • P E N extract of mycelium of Penicillium crysogenum • LIN linoleic acid • BABA—chemical elicitors of 3-dl-β-aminobutyric acid • BTH—chemical elicitors of benzothiadiazole • CP—comparator product: extract of microalgae • MBGPT1—alginate extract of Phaeodactylum tricornutum obtained according to the method described above • chrysolaminarin from microalga
# as §1
SMILES,production of metabolites linked to resistance phenomena / response [1],formation of necrotic spots and PR proteins ([1]; immediately after inoculation),inhibition of the zoospores (mobility) (zoospores),protection (Plasmopara viticola)
"c1ccc2snnc2c1 [BTH, benzothiadiazole]",induced the production of a wide range of metabolites linked to resistance phenomena,–,–,–
"CC(N)CC(=O)O (racemic) [BABA, 3-dl-β-aminobutyric acid]",–,caused the formation of necrotic spots and PR proteins immediately after inoculation,unable to inhibit the zoospores,–
"CCCCC/C=C\C/C=C\CCCCCCCC(=O)O [LIN, linoleic acid]",induced the production of a wide range of metabolites linked to resistance phenomena,–,–,insignificant protection

# From US20190223450A1, “MICROALGAE EXTRACT FOR AGRICULTURAL USE” (priority 2015, published 2019)
